From US20220387618A1, “METHODS OF TREATING HER2 POSITIVE BREAST CANCER WITH TUCATINIB IN COMBINATION WITH AN ANTI-HER2 ANTIBODY-DRUG CONJUGATE” (Seagen Inc., priority 2019, published 2022)

How the values were obtained:
[1] = tested on: BT-474 breast cancer cells; assay: BT-474 cell line-derived (CDX) subcutaneous xenograft model; format: in vivo, mice; settings: BT-474 CDX; tucatinib 50 mg/kg orally twice daily; T-DM1 10 mg/kg IV single dose; nine animals per arm
Procedure: Cell line-derived (CDX) BT-474 breast cancer cells were implanted subcutaneously into the flanks of female immunocompromised mice. […] Each study arm was comprised of nine animals each. Tumor volume was monitored until the designated endpoint of the study. P-values were determined by t-test analysis comparing the tucatinib/T-DM1 combination to the closest single agent arm (ref brackets). In this model, the combination of tucatinib and T-DM1 produced three complete responses and six partial responses, while tucatinib alone generated eight partial responses, and T-DM1 alone generated nine partial responses.

HER2 [2] = molecular target: T1, HER2 (Homo sapiens, UniProt P04626); assay: Plasma membrane-associated HER2 levels by quantitative FACS (qFACS) after tucatinib treatment; format: cell-based; settings: BT-474, SK-BR-3, HCC-1419, UACC-893; tucatinib 30 nM or 100 nM; 24 hours and 48 hours
T1 construct: endogenous in cells; host or cells: SK-BR-3
Procedure: (§1) To assess changes to HER2 protein levels upon treatment with tucatinib, HER2-amplified breast cancer cell lines were analyzed by Western blot and quantitative FACS (qFACS). HER2 protein levels were determined for BT-474, SK-BR-3, HCC-1419, and UACC-893 after treatment with tucatinib at either 30 nM or 100 nM doses, for the duration of 24 hours and 48 hours.
Cell surface levels of HER2 were determined for BT-474, SK-BR-3, HCC-1419, and UACC-893 after treatment with tucatinib at either 30 nM or 100 nM doses, for the duration of 24 hours and 48 hours. Plasma membrane-associated levels of HER2 were determined by quantitative FACS (qFACS) analysis after exclusion of dead cells. In all four cell lines tested, HER2 levels at the cell surface increased after treatment with tucatinib.

HER2+ mBC = assay: Phase 1b open-label dose-escalation study ONT-380-004 of tucatinib combined with T-DM1; format: in vivo, human; settings: PO BID in combination with T-DM1 3.6 mg/kg every 21 days
Procedure: For subjects in the CNS disease-expansion cohorts, trastuzumab and taxane (together or separately) might have been given at any time prior to study enrollment as part of neoadjuvant therapy, adjuvant therapy, or therapy for metastatic disease.
Fifty-seven T-DM1-naive subjects were treated (Borges 2018). […] In these 50 subjects, the median PFS was 8.2 months (95% CI: 4.8, 10.3); the clinical benefit rate (CBR; subjects with best response of complete response (CR) or partial response [PR], or stable disease [SD] for >6 months) among 48 evaluable subjects was 58% (28 subjects). Thirty-four of 50 subjects (68%) treated with the MTD had measurable disease and were evaluable for response with an objective response rate (ORR) of 47% (1 subject with CR, 15 subjects with PR 14 subjects with SD, and 4 subjects with disease progression). Among the subjects whose disease responded to treatment, the median duration of response (DOR) was 6.9 months (95% CI: 2.8, 19.8).

HER2 [3] = molecular target: T1, HER2; assay: HER2 internalization assays with fluorescently-labeled trastuzumab (AF488, QF) in SK-BR-3 cells; format: cell-based; settings: tucatinib 100 nM
Procedure: To probe the dynamics of HER2 at the cell surface upon binding to antibody therapeutics, HER2 internalization assays were conducted over the course of 72 hours. […] FIGS. 10A and 10B show the dynamics of HER2 at the cell surface upon binding to antibody therapeutics.
To probe the dynamics of HER2 at the cell surface upon binding to antibody therapeutics in the presence or absence of tucatinib (100 nM), SK-BR-3 cells were incubated with fluorescently-labeled trastuzumab to mark HER2 at the cell surface as shown in FIGS. 10A and 10B. Excess antibody was washed out. Cells were imaged at time points spanning 72 hours to observe internalization of surface-bound antibody. Concurrent experiments were conducted with trastuzumab labeled with QF […], a quenched fluor which fluoresces upon lysosomal processing and can serve as a proxy for antibody catabolism.

HER2 [4] = molecular target: T1, HER2; assay: HER2 total protein levels by western blotting (WES system) after tucatinib treatment; format: cell-based; settings: BT-474, SK-BR-3, HCC-1419, UACC-893; tucatinib 30 nM or 100 nM; 24 hours and 48 hours
Procedure: as §1
HER2 protein levels were determined for BT-474, SK-BR-3, HCC-1419, and UACC-893 after treatment with tucatinib at either 30 nM or 100 nM doses, for the duration of 24 hours and 48 hours. Protein lysates were generated from cells harvested at each timepoint. HER2 total protein levels were determined by western blotting using a WES™ system, and normalized against GAPDH levels as a loading control. In all four cell lines tested, HER2 total protein levels increased after treatment with tucatinib.

CTG-0807 model = assay: T-DM1-resistant HER2+ patient-derived (PDX) breast cancer model CTG-0807; format: in vivo, mice
Procedure: (§2) For these experiments, two T-DM1-resistant breast cancer tumor models were selected which scored 3+ by IHC and had metastasized to the lung. Tumor fragments were implanted subcutaneously into the flanks of immunocompromised mice. […] Each study arm was comprised of eight animals each. Tumor volume was monitored until the designated endpoint of the study. P-values were determined by t-test analysis comparing the tucatinib/T-DM1 combination to the closest single agent arm (ref brackets).

P-gp = P-gp (Homo sapiens, UniProt P08183); settings: concomitant use with digoxin; cited from earlier work
CTG-0708 model = assay: T-DM1-resistant HER2+ patient-derived (PDX) breast cancer model CTG-0708; format: in vivo, mice
Procedure: as §2

[5] = CTG-0807 PDX, tucatinib 50 mg/kg orally twice daily, T-DM1 10 mg/kg IV single dose, eight animals per arm
[6] = CTG-0708 PDX, tucatinib 50 mg/kg orally twice daily, T-DM1 10 mg/kg IV single dose, eight animals per arm

T1 sequence (P04626 23-1255): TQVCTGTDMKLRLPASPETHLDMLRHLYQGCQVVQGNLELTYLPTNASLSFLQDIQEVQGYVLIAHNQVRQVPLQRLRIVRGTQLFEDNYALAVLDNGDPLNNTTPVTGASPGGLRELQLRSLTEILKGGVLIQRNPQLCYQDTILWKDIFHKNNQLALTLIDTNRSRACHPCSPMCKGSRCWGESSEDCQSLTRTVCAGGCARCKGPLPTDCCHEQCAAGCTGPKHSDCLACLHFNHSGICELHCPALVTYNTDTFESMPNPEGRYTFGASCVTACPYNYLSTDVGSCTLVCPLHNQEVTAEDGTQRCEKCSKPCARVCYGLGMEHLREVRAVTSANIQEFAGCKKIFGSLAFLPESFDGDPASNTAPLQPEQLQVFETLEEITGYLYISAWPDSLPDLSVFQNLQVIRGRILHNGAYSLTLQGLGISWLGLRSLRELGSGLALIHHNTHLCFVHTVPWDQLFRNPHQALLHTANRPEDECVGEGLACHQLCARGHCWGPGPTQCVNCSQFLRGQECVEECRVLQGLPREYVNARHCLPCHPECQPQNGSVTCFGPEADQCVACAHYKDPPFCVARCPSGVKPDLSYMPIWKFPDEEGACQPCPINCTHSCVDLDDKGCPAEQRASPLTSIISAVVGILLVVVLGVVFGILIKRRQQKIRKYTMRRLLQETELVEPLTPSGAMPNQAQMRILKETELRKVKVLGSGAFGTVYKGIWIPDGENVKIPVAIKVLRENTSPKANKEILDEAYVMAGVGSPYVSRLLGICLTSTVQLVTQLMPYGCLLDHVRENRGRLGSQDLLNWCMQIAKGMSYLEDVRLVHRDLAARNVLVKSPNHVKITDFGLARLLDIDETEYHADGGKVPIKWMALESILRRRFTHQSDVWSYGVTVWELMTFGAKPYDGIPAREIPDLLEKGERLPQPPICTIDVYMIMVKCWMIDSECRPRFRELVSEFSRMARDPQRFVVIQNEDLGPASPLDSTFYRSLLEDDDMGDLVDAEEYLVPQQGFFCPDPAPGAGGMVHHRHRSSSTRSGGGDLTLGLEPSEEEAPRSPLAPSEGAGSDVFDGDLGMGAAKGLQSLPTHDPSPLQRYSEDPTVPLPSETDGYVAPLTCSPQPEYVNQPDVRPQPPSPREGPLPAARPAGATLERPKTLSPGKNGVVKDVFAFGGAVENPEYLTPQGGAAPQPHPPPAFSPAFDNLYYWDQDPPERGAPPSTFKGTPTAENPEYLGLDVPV
Chain of P-gp (P08183 whole entry): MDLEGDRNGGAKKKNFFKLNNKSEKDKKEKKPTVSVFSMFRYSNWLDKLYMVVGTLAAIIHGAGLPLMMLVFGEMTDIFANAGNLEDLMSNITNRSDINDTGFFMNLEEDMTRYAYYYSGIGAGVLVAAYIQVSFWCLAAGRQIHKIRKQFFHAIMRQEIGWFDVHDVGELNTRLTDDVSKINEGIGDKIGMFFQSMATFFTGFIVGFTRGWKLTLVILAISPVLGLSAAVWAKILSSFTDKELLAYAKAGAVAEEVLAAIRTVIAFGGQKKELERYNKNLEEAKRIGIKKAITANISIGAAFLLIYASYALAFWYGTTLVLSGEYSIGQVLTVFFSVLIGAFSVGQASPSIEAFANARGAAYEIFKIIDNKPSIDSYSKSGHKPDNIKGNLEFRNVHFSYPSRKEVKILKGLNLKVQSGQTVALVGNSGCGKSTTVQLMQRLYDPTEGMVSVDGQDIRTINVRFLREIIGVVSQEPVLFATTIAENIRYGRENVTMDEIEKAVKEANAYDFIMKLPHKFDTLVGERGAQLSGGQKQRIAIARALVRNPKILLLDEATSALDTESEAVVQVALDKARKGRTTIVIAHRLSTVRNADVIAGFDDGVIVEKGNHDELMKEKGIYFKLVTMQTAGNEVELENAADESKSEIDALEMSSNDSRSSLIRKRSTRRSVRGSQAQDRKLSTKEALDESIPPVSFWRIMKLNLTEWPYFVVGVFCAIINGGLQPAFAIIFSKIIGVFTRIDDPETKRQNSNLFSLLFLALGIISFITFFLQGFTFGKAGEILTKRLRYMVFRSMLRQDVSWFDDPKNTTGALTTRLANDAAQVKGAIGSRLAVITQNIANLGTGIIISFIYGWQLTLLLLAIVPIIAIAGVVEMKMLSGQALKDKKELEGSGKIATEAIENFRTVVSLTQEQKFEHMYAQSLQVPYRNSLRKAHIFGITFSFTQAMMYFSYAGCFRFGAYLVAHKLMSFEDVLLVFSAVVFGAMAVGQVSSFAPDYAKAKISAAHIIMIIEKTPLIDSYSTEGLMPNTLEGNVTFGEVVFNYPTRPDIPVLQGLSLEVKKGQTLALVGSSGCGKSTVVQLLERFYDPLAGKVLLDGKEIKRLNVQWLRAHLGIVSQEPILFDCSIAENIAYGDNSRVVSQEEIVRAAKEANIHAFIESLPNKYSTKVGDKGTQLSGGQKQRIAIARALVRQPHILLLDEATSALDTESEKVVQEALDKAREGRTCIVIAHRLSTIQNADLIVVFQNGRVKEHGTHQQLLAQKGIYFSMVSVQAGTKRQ

For `Cc1cc(Nc2ncnc3ccc(NC4=NC(C)(C)CO4)cc23)ccc1Oc1ccn2ncnc2c1` [tucatinib], the partial responses [1] was “eight”, the “HER2 levels at the cell surface” value (HER2 [2]) was “increased” and the “maximum-tolerated dose (MTD) of tucatinib” value (HER2+ mBC) was 300 mg. The “dwell time of HER2 at the cell surface” value (HER2 [3]; initial effect) was “increased the dwell time of HER2 at the cell surface”, the “internalization and lysosomal processing of HER2 bound to trastuzumab” value (HER2 [3]; later timepoints, up to 72 hours) was “HER2 bound to trastuzumab was internalized and directed towards lysosomes” and the “HER2 total protein levels (normalized against GAPDH)” value (HER2 [4]) was “increased”. The partial responses (CTG-0807 model; [5]) was 6, the “tumor growth / tumor control” value (CTG-0807 model; T-DM1 resistant PDX model CTG-0807) was “inhibited tumor growth” and the “effect on digoxin concentrations (drug interaction)” value (P-gp) was “increases digoxin concentrations”. For the same compound, the partial responses (CTG-0708 model; [6]) was “two” and the “tumor growth / tumor control” value (CTG-0708 model; T-DM1 resistant PDX model CTG-0708) was “inhibited tumor growth”.

For “ado-trastuzumab emtansine [T-DM1, reference compound]”, the partial responses [1] was “nine”, the complete responses (CTG-0807 model; [5]) was “no partial or complete responses” and the partial responses (CTG-0807 model; [5]) was “no partial or complete responses”. The complete responses (CTG-0708 model; [6]) was “no partial or complete responses” and the partial responses (CTG-0708 model; [6]) was “no partial or complete responses”.
